Measured values published in ChEMBL document CHEMBL1122919, “Substituted 2-pyrones, 2-pyridones, and other congeners of elasnin as potential agents for the treatment of chronic obstructive lung diseases” (J Med Chem, 1985).

Legend:
Neutrophil elastase [1] = target: T1, Neutrophil elastase (Homo sapiens, UniProt P08246); experiment: Inhibitory activity was evaluated against human leukocyte elastase; Inactive
T1 sequence (P08246 whole entry): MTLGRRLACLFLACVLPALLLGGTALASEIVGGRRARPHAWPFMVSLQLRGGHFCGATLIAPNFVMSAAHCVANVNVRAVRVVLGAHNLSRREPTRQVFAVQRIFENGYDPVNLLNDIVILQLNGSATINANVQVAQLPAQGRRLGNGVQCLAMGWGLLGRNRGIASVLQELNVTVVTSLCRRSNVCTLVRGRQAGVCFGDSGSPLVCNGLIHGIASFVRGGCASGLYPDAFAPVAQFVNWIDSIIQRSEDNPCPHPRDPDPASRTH

Neutrophil elastase [2] = target: T1, Neutrophil elastase; experiment: Inhibitory activity was evaluated against human leukocyte elastase

IC50 (Neutrophil elastase [1])	IC50 (Neutrophil elastase [2]) [µM]	SMILES
Not Active	–	CCCc1cc(O)cc(=O)o1
–	35.8	CCCCCCCCCCCCCCCC(=O)c1c(O)cc(C)oc1=O
–	153	CCCCCCCCCCCc1cc(O)cc(=O)[nH]1
Not Active	–	CCCCCC(=O)c1c(O)cc(C)oc1=O

The remaining lines, values behind:

SMILES	IC50 (Neutrophil elastase [1])	IC50 (Neutrophil elastase [2]) [µM]
CCCCCCC(CCCC)c1cc(O)cc(=O)o1 (stereo not drawn)	–	1620
CCCCc1cc(O)cc(=O)o1	Not Active	–
CCCCCCCc1cc(O)cc(O)n1	Not Active	–
CCCC(=O)c1c(O)cc(C)oc1=O	Not Active	–
CCC(=O)c1c(O)cc(C)oc1=O	Not Active	–
CCCCCCCc1cc(O)cc(=O)o1	Not Active	–
CCCCCCCCCCCc1cc(O)cc(=O)o1	–	3150
CCCCCc1cc(O)cc(=O)o1	Not Active	–
CCCCCCCCCCCC(=O)c1c(O)cc(C)oc1=O	–	26.8
